The values below come from patent US20220339259A1, “ORALLY DELIVERED THERAPEUTICAL COMPOSITION AND USE THEREOF” (priority 2019, published 2022).

Where two headings read alike, the source gives them in different places.

For data set [1] the following is noted: in human; co-formulated with SNAC; cited from earlier work.
Data set [2] relates to c-Myc. Description: Knockdown of c-Myc expression in Caco-2 cells (Western blot). To be noted: 200 nM, without transfection reagent, 3 days. Format: cell-based, human. The method, then: FIG. 18. Examples of representative measurement data of protein expression. Western blot was performed to measure the suppression of c-Myc expression by LCFA-conjugated miR-34a mimic 3 days after Caco-2 cells were treated. c-Myc is a known target of miR-34a. Its expression level was detected both after a short exposure (short expo) and a relatively long exposure (long expo).
Caco-2 cells were seeded in 6-well cell culture plates, and treated (without any transfection reagent) with 200 nM free scramble siRNA (Scr), 200 nM free miR-34a mimic (miR-34a), or 200 nM LCFA-conjugated miR-34a (FA-miR-34a), respectively. Cells were harvested 3 days later, and lysed to prepare protein samples. Equal amount of protein samples was loaded in 10% SDS-polyacrylamide gels for Western blot analysis. The c-Myc protein was detected with an anti-c-Myc antibody. c-Myc expression levels were detected after both a short-time exposure (short expo) and relatively long-time exposure (long expo). β-Actin was served as an expression control (FIG. 18).
On the technique in general: In western blotting, separated proteins are transferred to a membrane and probed.

Data set [3] is described as follows: Plasma ibrutinib level by HPLC after oral gavage. Details: species or system mice. To be noted: mouse, in vivo. The method, then:
FIG. 16A-FIG. 16B. Examples of representative HPLC data. Plasma ibrutinib levels were measured by HPLC 3 hours after mice were treated by oral gavage with an equal amount of free ibrutinib and LCFA-ibrutinib. The ibrutinib peaks are indicated with arrows. There was a 3-fold increase in plasma ibrutinib level in mice treated with LCFA-ibrutinib (B) compared with those treated with free ibrutinib (A) based on the measurements of the area under the curve (AUC).
LCFA-conjugated ibrutinib was synthesized and characterized (FIG. 15A-FIG. 15C). To compare drug uptake between free ibrutinib and LCFA-ibrutinib, mice were treated with an equal amount of free ibrutinib or LCFA-ibrutinib. Blood samples were collected at different time points, and analyzed for ibrutinib content by HPLC. Area under the curve (AUC) of ibrutinib was calculated to evaluate plasma drug concentration (FIG. 16A-FIG. 16B).

A short description of data set [4]: Intraperitoneal glucose tolerance test, GLP-1-Lys^26-LCFA in acid-neutralized mice. Format: in vivo, male C57BL/6 mice. The method, then:
FIG. 12. Additional examples of representative glucose tolerance assay results. Glucose tolerance assays were performed after treatment with free GLP-1 analogue or GLP-1-Lys^26-LCFA. Each mouse was treated orally with 100 μL 1M NaHCO3 to neutralize acid in the gastric fluid as described before. After 1 minute, the mice were treated p.o. with PBS, 100 μg free GLP-1 analogue (GLP-1), or 100 μg GLP-1-Lys^26-LCFA. The mice were then challenged with intraperitoneal injection of 2 g/kg glucose 1 hour after treatment.
Intraperitoneal GTT was performed in male C57BL/6 mice. Briefly, 6 to 12-week-old male C57BL/6 mice were fasted overnight and treated with 100 μL 1M NaHCO3 to neutralize acid in the gastric fluid. One minute later, the mice were treated with PBS, 100 μg GLP-1 analogue, or 100 μg GLP-1-Lys^26-LCFA by oral gavage, respectively. All mice were then treated with 2 g/kg glucose by intraperitoneal injection 1 hour later. Blood samples were collected to measure blood glucose levels. Area under the curve (AUC) of blood glucose was calculated to evaluate hypoglycemic response to each treatment (FIG. 12).

A short description of data set [5]: Intraperitoneal glucose tolerance test, Ex4-Lys^27-LCFA in acid-neutralized mice. Format: in vivo, male C57BL/6 mice. The method, then: FIG. 11. […] Each mouse was treated orally with 100 μL 1M NaHCO3 to neutralize acid in the gastric fluid. […] The mice were then challenged with intraperitoneal injection of 2 g/kg glucose 1 hour after treatment.
Intraperitoneal glucose tolerance test (GTT) was performed in male C57BL/6 mice. Briefly, 6 to 12-week-old male C57BL/6 mice were fasted overnight and treated by oral gavage with 100 μL 1M NaHCO3 to neutralize acid in the gastric fluid. One minute later, the mice were treated with PBS, 100 μg Ex4, or 100 μg Ex4-Lys^27-LCFA by oral gavage, respectively. All mice were then treated with 2 g/kg glucose by intraperitoneal injection 1 hour later. Blood samples were collected to measure blood glucose levels. Area under the curve (AUC) of blood glucose was calculated to evaluate hypoglycemic response to each treatment (FIG. 11).

The test system of data set [6] is Caco-2 cells. Description: Uptake of fatty acid-Ex4 conjugate by Caco-2 cells. Format: cell-based, human. To be noted: Alexa594-labeled conjugates; incubation for one hour. The method, then: FIG. 10. Examples of representative results of Caco-2 cell uptake. The fatty acid-conjugated Ex4 molecules were incubated with Alexa594 (fluorescent dye)-labeled Ex4-Lys^27-LCFA having 12, 16 and 18 carbon fatty acids (C12, C16, C18, respectively) and Ex4-Lys^27-SCFA (short chain fatty acid having 8 carbons, shown as C8) and were taken up by the cells. Levels of uptake were determined based on fluorescent intensity (MFI) inside the cells.
Coco-2 cells were seeded in cell culture plates. Cells were incubated with either fluorescently labeled Ex4-Lys^27-SCFA (C8) or one of the fluorescently labeled Ex4-Lys^27-LCFA having a C12, C16 and C18 LCFA. After incubation for one hour, cells were washed with PBS to remove fatty acid-conjugated Ex4. A plate reader was applied to measure fluorescent intensity in each well in the cell culture plate, and the results were compared (FIG. 10).

For data set [7] the following is noted: cited from earlier work.
The mark [8] stands for this setting: 100 μg p.o. after 100 μL 1M NaHCO3, 2 g/kg glucose i.p. 1 hour after treatment, 15 minutes after challenge.
Setting [9] is: 100 μg p.o. after NaHCO3, 2 g/kg glucose i.p. 1 hour later.

As for semaglutide, the oral bioavailability entry in data set [1] is given as “barely detectable”.

With “miR-34a: free microRNA-34a mimic duplex (SEQ ID. 3 and 4), unconjugated control (chain 1 UGGCAGUGUCUUAGCUGGUUGUTT; chain 2 ACAACCAGCUAAGACACUGCCATT; sense strand nucleotides 20 and 21 methylated, type of methylation not given here)”, the “suppression of c-Myc expression” value in data set [2] was “not”.

Consider `C=CC(=O)N1CCCC(n2nc(-c3ccc(Oc4ccccc4)cc3)c3c(NC(=O)CCCCCCCCCCCCCCCCC(=O)O)ncnc32)C1` (centres unmarked) [LCFA-ibrutinib], for which the “Area under the curve (AUC) of ibrutinib in plasma (HPLC)” value in data set [3] was 6.428. The “increase in plasma ibrutinib level compared with free ibrutinib (based on AUC)” value in data set [3] (3 h) worked out at 3 fold.

In the case of “free GLP-1: GLP-1 analogue with AIB at position 8 (SEQ ID. 2), unconjugated”, the “blood glucose level after glucose challenge” value in data set [4] (setting [8]) is listed as “high blood glucose levels”. Further, the “controlling blood glucose level after gavage in the acid-neutralized GI track” value in data set [4] (setting [9]) is reported as “not”.

As for “Ex4-Lys^27-LCFA: conjugated long-chain fatty acid and exendin-4 through lysine residue 27; C12, C16 and C18 dicarboxylic acids used”, the “blood glucose level after glucose challenge” value in data set [5] (setting [8]) was “mild increase in blood glucose level”. The “controlling blood glucose level after gavage in the acid-neutralized GI track” value in data set [5] (setting [9]) is “effective in controlling blood glucose level”. Moreover, in data set [6], the “levels of uptake by Caco-2 cells (fluorescent intensity, MFI)” value was “high uptake”.

Turning to `C=CC(=O)N1CCC[C@@H](n2nc(-c3ccc(Oc4ccccc4)cc3)c3c(N)ncnc32)C1` [ibrutinib], the oral bioavailability in data set [7] (fasting state) is reported as 3.9%; in data set [7] (fed state), 8.4%.
